Data published in patent US8410118B2, “Inhibitors of fatty acid uptake and methods of use” (NUtech Ventures, priority 2009, dated 2013).
Like-named read-outs stand apart in the source and are kept apart here.

Columns and labels:
[1] = system: Caco-2 cells; assay: C1-BODIPY-C12 fatty acid uptake (transport) inhibition in Caco-2 cells; assay type: cell-based, human; conditions: for % Transport Standard Assay: compound at f.c. 40 μM, Caco-2 cells, control = 100, mean ± SD of 3-5 experiments
From the text: The Caco-2 cell line is derived from a human adenocarcinoma and is able to undergo differentiation into polarized epithelial cells that show a brush border phenotype and form well-developed and functional tight junction complexes [Fogh et al., J. Natl. Cancer Inst., 1977, 59:221-6; Grasset et al., Am. J. Physiol., 1984, 247:C260-7]. This cell line is used as an in vitro model to predict human intestinal absorption and secretion [Hilgers et al., Pharm. Res., 1990, 7:902-10]. Caco-2 cells were maintained in Earl's minimal essential medium (MEM) with 20% FBS in a 95% air 5% CO2 atmosphere at 37° C., as previously described [Sandoval et al., Arch. Biochem. Biophys., 2008, 477:363-71]. For growth and differentiation, the BD Biosciences Intestinal Epithelium Differentiation Media Pack was used. Cells were plated in basal seeding medium at a density of 2.5×10^5 cells/cm^2 on a collagen-coated black-clear 96-well plate (BD Biosciences). After 72 h in culture, the basal seeding medium was removed and Entero-STIM medium was added to each well. Both media contained mito-serum extender. After another 24 h, cells were serum-starved for one hour in MEM without phenol red prior to performing the C1-BODIPY-C12 uptake assay. HepG2 cells (ATCC, HB-8065) were cultured according to the ATCC protocol. The cells were seeded in 96-well collagen coated plates at a seeding density of 2.5×10^5 cells/cm^2. […] For differentiation into adipocytes, 3T3-L1 cells were treated with methylisobutylxanthine (0.5 mM), dexamethasone (1.0 μM), and insulin (1.75 μM) in DMEM and 10% FBS for 48 hours as described by Student et al. [Student et al., J. Biol. Chem., 1980, 255:4745-50]. After 48 hour incubation with differentiation medium, cells were treated with DMEM and 10% FBS supplemented with insulin (1.75 μM) for 48 hours. Cells were subsequently maintained in DMEM and 10% FBS for an additional 3-6 days until fully differentiated. The number of cells per well in screening trials were determined using the FluoReporter® Blue Fluorometric DNA Quantitation Kit from Invitrogen.
Caco-2 cells were plated in basal seeding medium at a density of 2.5×10^5 cells/cm^2 in collagen-coated 96-well plates, and differentiated as detailed above. HepG2 cells were cultured in EMEM. Differentiated 3T3-L1 adipocytes were maintained in modified DMEM and 10% FBS. After another 24 h, cells were serum-starved for 1 h in MEM without phenol red prior to performing the C1-BODIPY-C12 transport assay [Sandoval et al., Arch. Biochem. Biophys., 2008, 477:363-71; Arias-Barrau et al., Methods Mol. Biol., 2009, 580:233-49]. In a standard reaction, serum-free MEM was removed from the wells and 50 μL of the test compound in MEM (MEM alone for controls) were added to each well and incubation was continued for 1 h. Then 50 μL of C1-BODIPY-C12 mixture (final concentrations 5 μM C1-BODIPY-C12; 5 μM FAF BSA; 1.97 mM trypan blue) was added to each well, and uptake was allowed to take place for 15 min. Cell-associated fluorescence was measured as detailed above. […] Ligand competition curves were fit by nonlinear least-squares regression using one-site competition and dose-response models and Prism software (GraphPad software, Inc., San Diego, Calif.) in order to determine the compound concentration that reduced C1-BODIPY-C12 fluorescence readout by 50% (IC50). Ki values were calculated from the IC50 using the equation of Cheng and Prusoff as detailed in Li et al. [J. Lipid Res., 2008, 49:230-44] and KT values published by Sandoval et al. [Sandoval et al., Arch. Biochem. Biophys., 2008, 477:363-71].

[2] = system: HepG2 cells; assay: C1-BODIPY-C12 fatty acid uptake inhibition in HepG2 cells; assay type: cell-based
Method: (§1) This cell line is used as an in vitro model to predict human intestinal absorption and secretion [Hilgers et al., Pharm. […] For growth and differentiation, the BD Biosciences Intestinal Epithelium Differentiation Media Pack was used. Cells were plated in basal seeding medium at a density of 2.5×10^5 cells/cm^2 on a collagen-coated black-clear 96-well plate (BD Biosciences). After 72 h in culture, the basal seeding medium was removed and Entero-STIM medium was added to each well. Both media contained mito-serum extender. After another 24 h, cells were serum-starved for one hour in MEM without phenol red prior to performing the C1-BODIPY-C12 uptake assay. […] The cells were seeded in 96-well collagen coated plates at a seeding density of 2.5×10^5 cells/cm^2. […] Cells were subsequently maintained in DMEM and 10% FBS for an additional 3-6 days until fully differentiated. The number of cells per well in screening trials were determined using the FluoReporter® Blue Fluorometric DNA Quantitation Kit from Invitrogen.
(§2) Caco-2 cells were plated in basal seeding medium at a density of 2.5×10^5 cells/cm^2 in collagen-coated 96-well plates, and differentiated as detailed above. HepG2 cells were cultured in EMEM. Differentiated 3T3-L1 adipocytes were maintained in modified DMEM and 10% FBS. After another 24 h, cells were serum-starved for 1 h in MEM without phenol red prior to performing the C1-BODIPY-C12 transport assay [Sandoval et al., Arch. […] In a standard reaction, serum-free MEM was removed from the wells and 50 μL of the test compound in MEM (MEM alone for controls) were added to each well and incubation was continued for 1 h. […] Cell-associated fluorescence was measured as detailed above.

[3] = system: 3T3-L1 adipocytes; assay: C1-BODIPY-C12 fatty acid uptake inhibition in 3T3-L1 adipocytes; assay type: cell-based
Method: as §1, §2

[4] = system: Caco-2 cells; assay: Glucose analogue 2-NBDG uptake into Caco-2 cells; assay type: cell-based, human; conditions: differentiated Caco-2 cells
Method: To assess the impact of selected compounds upon glucose transport, Caco-2 cells were seeded and differentiated in 96-well collagen coated plates as detailed above and incubated for 1 h with compound diluted in PBS. […] Cells were incubated 30 min at 37° C., 5% CO2 to allow uptake. The medium was removed by aspiration and cells were rinsed once with 100 μL, of PBS.

[5] = system: long chain acyl-CoA synthetase (Acsl); assay: Oleoyl-CoA synthetase (Acsl) activity in Caco-2 cell extracts after compound treatment; assay type: biochemical, human; conditions: Caco-2 cells pretreated 1 h; for oleoyl CoA synthetase activity: activity in total cell extracts
Method: Caco-2 cells were grown and differentiated in 60 mm collagen coated dishes (at a seeding density 2.5×10^5 cells/cm^2). Following growth and differentiation as detailed above, cells were serum starved for 1 h in MEM and then were treated for 1 h with selected compounds at specified final concentrations. The media was subsequently removed by aspiration and cells washed once with 5 mL PBS, trypsinized using standard procedures and collected by centrifugation. The cell pellet was resuspended in 1 mL STE lysis buffer (10 mM Tris-HCl (pH 8.0); 0.1M NaCl; 1 mM EDTA) and sonicated on ice for 2 min using 3 sec on/off pulses. […] In parallel experiments, untreated cells were used to prepare the cell extract for Acsl activity measurements where the compound of interest was added directly to the reaction mixture.
Acyl-CoA formed during the reaction remained in the aqueous fraction and was quantified by scintillation counting. Data were expressed as nmol oleoyl CoA formed/min/mg protein.

[6] = system: Caco-2 cells; assay: MTT cytotoxicity assay in Caco-2 cells
Method: The MTT [3-(4,5-dimethylthiazol-2-yl)-2,5-diphenyltetrazolium bromide] assay was used to determine if compounds of interest were cytotoxic to Caco-2 cells [Mosmann, J. Immunol. […] Cells were cultured and differentiated as detailed above in collagen-coated 96-well plates. Cells were incubated at 37° C., 5% CO2 for at least one hour and up to 72 h in MEM containing the appropriate dilution of compound. Following this incubation period, the media with compound was removed and 110 μL, of MTT reagent (prepared in MEM (final concentration 0.45 mg/mL MTT)) was added. After a 3 h incubation period, the reaction was terminated by the addition of 150 μL, stop buffer (0.01N HCl in 10% SDS). The plates were incubated for 1 h at 37° C. to facilitate solubilization of formazan crystals; color development was read at A570.

[7] = C1-BODIPY-C12 uptake, average of 3 experiments ± SEM, read-out: Caco-2 IC50
[8] = Table 3, structurally related compounds in Caco-2 cells, read-out: IC50
[9] = Table 4, derived from laboratory data, read-out: IC50 (μM ± SE)
[10] = Homo sapiens, Caco-2, Table 4, derived from laboratory data, read-out: IC50 (μM ± SE)
[11] = Homo sapiens, Table 3, structurally related compounds in Caco-2 cells, read-out: IC50

SMILES	IC50 [1, 8]	IC50 [1, 9]	% Transport Standard Assay [1]	glucose (2-NBDG) transport ([4]; 20 μM)	IC50 [1, 10]	oleoyl CoA synthetase activity [5]	cellular toxicity (MTT, mitochondrial function) ([6]; 50 μM for 24 h)	other results
COc1cc(/C=C2/SC(=S)N(c3cccc(Cl)c3)C2=O)cc(Br)c1O [Compound I-1, (5E)-5-[(3-bromo-4-hydroxy-5-methoxyphenyl)methylene]-3-(3-chloropheny1)-2-thioxothiazolidin-4-one]	3.99 ± 0.32 µM	3.99 ± 0.32 µM	46 ± 3%	not affected	–	–	–	IC50 [1, 7]: 3.99 ± 0.32 µM; IC50 [2]: 7.55 ± 1.23 µM; IC50 [3]: 231 ± 33.5 µM; inhibition of oleoyl CoA synthetase activity ([5]; 50 μM (10 times the IC50)): about 50%
COc1cc(/C=C2/SC(=S)N(c3cccc(Cl)c3)C2=O)ccc1O [Compound I-2]	–	–	–	–	121 ± 25.4 µM	–	–	IC50 [1, 11]: 121 ± 25 µM
COc1cc(/C=C2/SC(=S)N(c3cccc(F)c3)C2=O)cc(Br)c1O [Compound I-4]	–	–	–	–	–	–	–	IC50 [1, 11]: 4.7 ± 0.8 µM
OCC(CCc1c[nH]c2ccccc12)c1c[nH]c2ccccc12 (stereo not shown) [Compound V-1, 2,4-bis(1H-indol-3-yl)butan-1-ol]	–	–	52 ± 2%	–	–	not reduced	–	IC50 ([1]; Homo sapiens, Caco-2, C1-BODIPY-C12 uptake, average of 3 experiments ± SEM, read-out: Caco-2 IC50): 29.2 ± 3.64 µM; IC50 ([2]; Homo sapiens, HepG2): 84.1 ± 14.1 µM; IC50 ([3]; Mus musculus, 3T3-L1): 143 ± 22.4 µM; glucose (2-NBDG) transport ([4]; 50 μM): reduced 2-NBDG transport slightly; cellular toxicity (MTT, mitochondrial function) ([6]; 100 μM for 24 h): not toxic
O=c1cc(-c2ccc([N+](=O)[O-])cc2)[nH]c2c(-c3ccc(Cl)cc3)c(Cc3ccccc3)nn12 [II-1, 2-benzy1-3-(4-chloropheny1)-5-(4-nitropheny1)-1H-pyrazolo[5,1-b]pyrimidin-7-one]	6.34 ± 0.93 µM	6.34 ± 0.93 µM	54 ± 1%	not affected	–	not reduced	not toxic	IC50 [1, 7]: 6.34 ± 0.93 µM; IC50 [2]: 10.2 ± 1.26 µM; IC50 [3]: 901 ± 205 µM
Oc1c(C2=NCCNC(C(F)(F)F)=C2)ccc2ccccc12 [III-1, 2-[7-(trifluoromethyl)-2,3-dihydro-1H-1,4-diazepin-5-yl]naphthalen-1-ol]	–	–	35 ± 1%	not affected	4.93 ± 0.4 µM	not reduced	not toxic	IC50 ([2]; Homo sapiens, HepG2): 6.72 ± 0.81 µM; IC50 ([3]; Mus musculus, 3T3-L1): 52.5 ± 6.7 µM
O=C1C=CC=CC1=C1NNC2(S1)C(=O)Nc1ccc(Br)cc12 (stereo not shown) [IV-1, 5′-bromo-5-(6-oxocyclohexa-2,4-dien-1-ylidene)spiro[1,3,4-thiadiazolidine-2,3′-1H-indole]-2′-one]	–	–	27 ± 1%	not affected	6.66 ± 0.64 µM	not reduced	not toxic	–
O=C1Nc2ccccc2C12CN=C(c1ccccc1O)S2 (stereo not shown) [IV-2]	11.9 ± 1.43 µM	11.9 ± 1.43 µM	–	–	–	–	–	–
O=C1Nc2ccc(Br)cc2C12CN=C(c1ccccc1)S2 (stereo not shown) [IV-3]	4.84 ± 0.69 µM	4.84 ± 0.69 µM	–	–	–	–	–	–
